Results published in the supplement of paper PMC10307832.

Legend:
Assay in all cases: relative viability (nuclei count vs DMSO), 5 days (fraction); higher = more cells survive
[1] = compound: C1=CC2=NC=CN=C2C=C1/C=C/3\C(=O)NC(=O)S3 + COc1cccc2cc(-c3nc([C@H]4CC[C@H](C(=O)O)CC4)n4ncnc(N)c34)[nH]c12 [OSI-027] (partner 0.5 µM)
Method in brief: (§1)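 One day after seeding in 1536-well plates, lung cancer cell lines were dosed by pin tool. Dosing was either single-drug or a fixed anchor-drug dose plus five library-drug doses (not always all listed) in √10 steps. After 5 days, nuclei were stained in one fix-and-stain step and counted on 4× images, and relative viability is the nuclei count of treated wells over that of vehicle wells, given as the median of duplicate plates.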

[2] = compound: C1=CC2=NC=CN=C2C=C1/C=C/3\C(=O)NC(=O)S3 + N=C(N)NC(=N)NCCc1ccccc1 [Phenformin] (partner 250 µM)
Method in brief: as §1

[3] = compound: C1=CC2=NC=CN=C2C=C1/C=C/3\C(=O)NC(=O)S3 + C[C@]1(O)C[C@@H](c2nc(-c3ccc4ccc(-c5ccccc5)nc4c3)c3c(N)nccn32)C1 [Linsitinib] (partner 1 µM)
Method in brief: as §1

BGJ398 + Luminespib = compound: CCN1CCN(c2ccc(Nc3cc(N(C)C(=O)Nc4c(Cl)c(OC)cc(OC)c4Cl)ncn3)cc2)CC1 [BGJ398] + CCNC(=O)c1noc(-c2cc(C(C)C)c(O)cc2O)c1-c1ccc(CN2CCOCC2)cc1 [Luminespib] (partner 0.01 µM)
Method in brief: as §1

Cell Line	relative viability ([1]; first compound 0.02 µM)	relative viability ([1]; first compound 0.06325 µM)	relative viability ([1]; first compound 0.2 µM)	relative viability ([1]; first compound 0.6325 µM)	relative viability ([1]; first compound 2 µM)	relative viability ([2]; first compound 0.02 µM)	relative viability ([2]; first compound 0.06325 µM)	relative viability ([2]; first compound 0.2 µM)	relative viability ([2]; first compound 0.6325 µM)	relative viability ([2]; first compound 2 µM)	relative viability ([3]; first compound 0.02 µM)	relative viability ([3]; first compound 0.06325 µM)	relative viability ([3]; first compound 0.2 µM)	relative viability ([3]; first compound 0.6325 µM)	relative viability ([3]; first compound 2 µM)	relative viability (BGJ398 + Luminespib; first compound 0.01 µM)	relative viability (BGJ398 + Luminespib; first compound 0.03162 µM)	relative viability (BGJ398 + Luminespib; first compound 0.1 µM)	relative viability (BGJ398 + Luminespib; first compound 0.3162 µM)	relative viability (BGJ398 + Luminespib; first compound 1 µM)
LU99A	0.298	0.332	0.295	0.293	0.218	0.799	0.814	0.862	0.926	0.625	0.597	0.559	0.561	0.5	0.475	0.205	0.248	0.225	0.243	0.254
NCI-H1355	0.383	0.338	0.402	0.396	0.258	0.435	0.374	0.489	0.431	0.392	0.805	0.782	0.843	0.79	0.804	0.683	0.705	0.793	0.735	0.696
HCC-78	0.362	0.408	0.352	0.347	0.279	0.597	0.592	0.698	0.698	0.368	0.488	0.517	0.54	0.497	0.403					
NCI-H1563	0.834	0.823	0.76	0.734	0.65	0.667	0.674	0.657	0.648	0.663	1.19	1.23	1.12	1.1	1.3	0.492	0.525	0.499	0.556	0.544
HCC-15	0.759	0.672	0.726	0.641	0.373	0.497	0.471	0.488	0.457	0.336	0.824	0.868	0.912	0.861	0.885	0.316	0.258	0.294	0.37	0.397
EKVX	0.69	0.405	0.683	0.683	0.408	0.216	0.22	0.239	0.223	0.225	0.772	0.845	0.983	0.981	0.945	0.783	0.859	0.999	0.782	0.966
NCI-H2087	0.42	0.523	0.615	0.574	0.37	0.428	0.33	0.42	0.493	0.502	1.07	0.911	0.996	0.937	0.954	0.177	0.186	0.173	0.203	0.133
LK-2	0.225	0.23	0.201	0.184	0.147	0.615	0.603	0.488	0.368	0.195	0.68	0.523	0.69	0.644	0.516	0.18	0.16	0.169	0.177	0.172
